Results taken from PubChem BioAssay AID1645862 (Buhrlage Lab, Dana-Farber Cancer Institute and Novartis …, 2021).
Activity calls are given as the source filed them. No rule for the calls is given here.

Target: Ubiquitin carboxyl-terminal hydrolase 8 (Homo sapiens) (UniProt P40818)
Experiment: Ubiquitin-specific protease 8 inhibitors, concentration-effect, biochemical, validation of initial actives (AID 1645862);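 also: potency reflects inhibition of USP8 cleavage of a ubiquitin rhodamine substrate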
Details: recombinant USP8 deubiquitinase activity assay

Ubiquitin carboxyl-terminal hydrolase 8 (Homo sapiens), sequence (P40818 whole entry, looked up): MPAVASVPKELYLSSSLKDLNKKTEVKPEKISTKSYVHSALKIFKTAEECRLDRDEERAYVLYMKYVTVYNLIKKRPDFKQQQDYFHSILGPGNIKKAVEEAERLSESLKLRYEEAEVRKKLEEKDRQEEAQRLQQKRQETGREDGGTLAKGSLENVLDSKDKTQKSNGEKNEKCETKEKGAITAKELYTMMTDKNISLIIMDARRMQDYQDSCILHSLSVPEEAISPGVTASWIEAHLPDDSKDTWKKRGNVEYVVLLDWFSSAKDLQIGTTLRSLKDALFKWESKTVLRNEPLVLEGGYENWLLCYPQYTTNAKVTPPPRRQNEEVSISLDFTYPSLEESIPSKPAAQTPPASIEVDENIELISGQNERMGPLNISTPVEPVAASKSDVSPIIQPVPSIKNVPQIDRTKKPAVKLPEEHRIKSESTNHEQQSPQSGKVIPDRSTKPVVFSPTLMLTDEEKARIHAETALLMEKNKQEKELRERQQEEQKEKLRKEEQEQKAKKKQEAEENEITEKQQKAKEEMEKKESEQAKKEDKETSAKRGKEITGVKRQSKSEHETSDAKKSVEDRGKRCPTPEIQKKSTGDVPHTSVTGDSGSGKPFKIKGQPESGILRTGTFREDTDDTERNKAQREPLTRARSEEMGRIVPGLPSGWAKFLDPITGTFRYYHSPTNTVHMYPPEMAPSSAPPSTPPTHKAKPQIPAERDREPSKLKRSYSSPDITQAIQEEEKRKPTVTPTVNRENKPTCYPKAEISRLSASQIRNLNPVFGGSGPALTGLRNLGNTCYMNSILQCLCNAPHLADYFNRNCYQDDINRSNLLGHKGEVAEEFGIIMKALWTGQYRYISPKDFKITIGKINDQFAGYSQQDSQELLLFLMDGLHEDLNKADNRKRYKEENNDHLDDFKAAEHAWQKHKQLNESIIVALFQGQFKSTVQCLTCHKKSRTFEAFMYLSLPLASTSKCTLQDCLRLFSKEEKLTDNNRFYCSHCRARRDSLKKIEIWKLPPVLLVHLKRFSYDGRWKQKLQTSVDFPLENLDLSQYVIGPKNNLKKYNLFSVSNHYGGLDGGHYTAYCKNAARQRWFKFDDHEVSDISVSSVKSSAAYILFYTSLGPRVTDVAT

| Compound | IC50 |
| --- | --- |
| O=C(CCn1c(=O)c2sccc2n(CC(=O)OCc2ccccc2)c1=O)NCc1ccc2c(c1)OCO2 | > 40 µM (inactive) |
| COc1ccc(CNC(=O)C(C)n2nc(-c3ccco3)c(-c3cc(C)no3)cc2=O)cc1 (centres undefined) | > 40 µM (inactive) |
| Cc1ncc(-c2ccc3c(c2)OCO3)c(-c2nccs2)n1 | > 40 µM (inactive) |
| COC(=O)c1ccc2c(=O)n(CCCCCC(=O)NCCc3ccc(OC)c(OC)c3)c(=O)[nH]c2c1 | > 40 µM (inactive) |
| CCn1cc2c(n1)c(=O)n(Cc1ccccc1)c(=O)n2CC(=O)NCc1ccc(C)cc1 | > 40 µM (inactive) |
| Cc1c(NC(=O)/C=C/c2cccc(Cl)c2Cl)cccc1-n1cnnn1 | > 40 µM (inactive) |
| CNc1nc2c(c(=O)n1C)CN(C(=O)Nc1cccc3ccccc13)CC2 | > 40 µM (inactive) |
| CC(=O)Nc1ccc(C(=O)/C=C2\NCCc3cc4c(cc32)OCCCO4)cc1 | > 40 µM (inactive) |
| O=c1[nH]c(C2CCN(S(=O)(=O)c3ccc(S(=O)(=O)NC4CC4)cc3)CC2)nc2c1nnn2Cc1c(Cl)cccc1Cl | > 40 µM (inactive) |
| Cc1ccc(Cn2cc(C(=O)Nc3ccccc3C(N)=O)ccc2=O)cc1 | 7.34 µM |
| COc1cccc2c1NC(=O)C21CCN(C(=O)Nc2cccc3ccccc23)CC1 | > 40 µM (inactive) |
| CC1=CC(=O)C(C2=C(O)C(=O)C(C)=CC2=O)=C(O)C1=O | 9.22 µM |
| O=C(NCc1ccccc1)Nc1cccc2ccccc12 | > 40 µM (inactive) |
| Cc1cccc(NC(=O)CCCc2nnc3c(=O)n(-c4cccc(F)c4)ccn23)c1 | > 40 µM (inactive) |
| CCCn1c(=O)c2sccc2n2c(CCC(=O)N3CCc4ccccc4C3)nnc12 | > 40 µM (inactive) |
| COc1cc2c(oc(=O)c3cc(C)cc(OC)c32)c2c([C@@H]3OC(C)[C@@H](O)[C@@](C)(O)C3O)ccc(O)c12 (some centres undefined) | > 40 µM (inactive) |
| Cc1ccc(-n2nc(C(=O)Nc3ccc(C)cn3)c3ncn(C)c(=O)c32)cc1 | > 40 µM (inactive) |
| Nc1ncc(-c2ccc(F)cc2)c(C2CCCN(C(=O)c3ccn[nH]3)C2)n1 (centres undefined) | > 40 µM (inactive) |
| COc1ccc(-c2nc(-c3cn(-c4ccccc4)nn3)no2)c(OC)c1 | > 40 µM (inactive) |
| N#Cc1c(-c2ccc(Cl)cc2)cc(-c2cccc(Br)c2)[nH]c1=O | 25.5 µM |
| CC(C)=CCC[C@H](C(=O)O)[C@@H]1CC[C@]2(C)C3=C(CC[C@@]12C)[C@@]1(C)CCC(=O)C(C)(C)C1CC3 (some centres undefined) | > 40 µM (inactive) |
| CCOc1ccc(NC(=O)Cn2c(-c3ccccc3)cc(C(C)=O)c2C)cc1 | > 40 µM (inactive) |

| Compound | IC50 |
| --- | --- |
| CC(CCc1ccccc1)NC(=O)Cn1c(=O)c2cccn2c2ccccc21 (centres undefined) | > 40 µM (inactive) |
| COc1ccc(C(CNC(=O)c2cc(-c3ccc(Cl)cc3)on2)N2CCOCC2)cc1 (centres undefined) | > 40 µM (inactive) |
| Cc1ccc(CNC(=O)c2ccc3nn(CC(=O)Nc4ccccc4F)c(=O)n3c2)cc1 | > 40 µM (inactive) |
| O=C(CSc1nc2ccccc2[nH]1)Nc1cccc2c1OCCO2 | > 40 µM (inactive) |
| O=C(c1ccc2c(c1)OCO2)[C@@H]1[C@H](C(=O)OC(c2ccccc2)c2ccccc2)N2c3ccccc3C=CC2[C@@]12C(=O)Nc1ccccc12 (some centres undefined) | > 40 µM (inactive) |
| COc1ccc(C(=O)Nc2ccccc2C(=O)NC(Cc2ccc(O)cc2)C(=O)NNC(=O)Cc2ccc(OC)c(OC)c2)cc1 (centres undefined) | > 40 µM (inactive) |
| Cc1noc(-c2ccnc(-n3cnc(C(=O)NCC4CC4)c3)c2)n1 | > 40 µM (inactive) |
| CO/C=C/C(=O)c1cc2cnc3c(=N)cc(NC(C)=O)c([nH]1)c23 | 1.44 µM |
| COc1cc2c(=O)n(CC3CCCO3)c(=O)n(CC(=O)c3ccc4c(c3)OCO4)c2cc1OC (centres undefined) | > 40 µM (inactive) |
| O=c1c2cc(Br)ccc2[nH]c(=S)n1Cc1cccnc1 | > 40 µM (inactive) |
| CCc1nnc(-c2ccc3ccn(CC(=O)N4CCN(c5ccccn5)CC4)c3c2)o1 | > 40 µM (inactive) |
| Cc1cccc(C)c1NC(=O)CN1C(=O)CC(c2ccccc2)=Nc2ccccc21 | > 40 µM (inactive) |
| O=c1[nH]c(C2CCN(S(=O)(=O)c3ccc(S(=O)(=O)NC4CCCCC4)cc3)CC2)nc2c1nnn2Cc1c(Cl)cccc1Cl | > 40 µM (inactive) |
| O[C@H]1[C@H](NCc2cccc(C(F)(F)F)c2)[C@@H](c2cncnc2)C[C@H]1O | > 40 µM (inactive) |
| COc1cccc(C2c3[nH]c4ccccc4c3C[C@@H]3C(=O)N(CC(O)c4ccccc4)CC(=O)N23)c1 (some centres undefined) | > 40 µM (inactive) |
| O=C(Cn1ncc2c(=O)oc3ccccc3c21)NCc1ccc2c(c1)OCO2 | > 40 µM (inactive) |
| COc1ccc(NS(=O)(=O)c2cc(NC(=O)CC(=O)c3ccc([N+](=O)[O-])cc3)ccc2Cl)cc1 | > 40 µM (inactive) |
| CCCCOc1ccc(C(=O)n2ccn(S(=O)(=O)c3ccc(C)cc3)c2=O)cc1 | > 40 µM (inactive) |
| O=C(Cn1c(=O)n(Cc2ccc3c(c2)OCO3)c(=O)c2ccccc21)NCc1ccco1 | > 40 µM (inactive) |
| O=C(O)C1C(C(=O)Nc2ccccc2)C2(c3ccccc3)C(=O)C1(c1ccccc1)C(c1ccccc1)=C2c1ccccc1 (centres undefined) | 15.4 µM |
| Cc1nn(-c2nc3ccccc3o2)c2c1C(c1cccc([N+](=O)[O-])c1)CC(=O)N2 (centres undefined) | > 40 µM (inactive) |
| O=C(COC(=O)c1cccc([N+](=O)[O-])c1)Nc1cccc(Oc2ccccc2)c1 | > 40 µM (inactive) |
